Assay results as given in patent US11690858B1, “Neuroprotective mixture for mitigating the harmful effects of ischemic stroke” (Tricerapro Holding, LLC, priority 2018, dated 2023).
“And” between values parts separate entries of the source, which are not always exact repeats. Identical values can stand only once.

Assays:
[1] = system: fluid percussion model of head trauma; details: diffuse neuronal injury; cited from earlier work
[2] = system: rat model of ischemic infarct; details: cited from earlier work
[3] = system: diffuse anoxia injury model in rats; details: cited from earlier work; for amount of neuronal injury: diffuse anoxia injury model in rats; for entry into the cerebrospinal fluid (CSF): rats
[4] = system: rat model of ischemic stroke; assay: Infarct volumes by treatment groups in a rat model of ischemic stroke; type: in vivo; set-up: unit not given here; details: for Infarct volume, Contra, Average / Infarct volume, Infarct, Average: average of 5 animals; for Infarct volume, Contra / Infarct volume, Infarct: individual animals; for Infarct volume, Contralateral / Infarct volume, Ipsilateral: rounded average
Excerpt: Additional studies using a validated rat model for ischemic stroke have also been conducted. These studies made comparisons in stroke volumes between five different treatment groups: a. Ischemic stroke model in aged rats; no reperfusion; no neuroprotection b. Ischemic stroke model in aged rats; no reperfusion; neuroprotection administered c. Ischemic stroke model in aged rats; reperfusion (tPA) given; no neuroprotection d. Ischemic model in young rats; no reperfusion; no neuroprotection e. Ischemic stroke model in young rats; reperfusion (tPA) given; no neuroprotection

Row | Compound | extent of neuronal injury [1] | average size of infarcts ([2]; intraperitoneal injection, rat model of ischemia, reduced from 165 mm^3) [mm^3] | size of the measured infarct ([2]; intraperitoneal, 1 mmol/kg immediately after MCA occlusion) | amount of neuronal injury [3] | entry into the cerebrospinal fluid (CSF) [3] | Infarct volume, Contra, Average ([4]; aged rats, untreated aged 1.412) | Infarct volume, Infarct, Average ([4]; aged rats, untreated aged 12.918) | Infarct volume, Contra ([4]; aged rats) | Infarct volume, Infarct ([4]; aged rats) | Infarct volume, Contralateral ([4]; aged rats, untreated aged 1.4) | Infarct volume, Ipsilateral ([4]; aged rats, untreated aged 12.9) | Infarct volume, Contra, Average ([4]; young rats, untreated young 1.028) | Infarct volume, Infarct, Average ([4]; young rats, untreated young 8.012) | Infarct volume, Contra ([4]; young rats) | Infarct volume, Infarct ([4]; young rats) | Infarct volume, Contralateral ([4]; young rats, untreated young 1) | Infarct volume, Ipsilateral ([4]; young rats, untreated young 8)
1 | [Cl-].[Cl-].[Mg+2] [MgCl2, magnesium chloride] | limits the extent of neuronal injury | 122 | decreased the size of the measured infarct | alter the amount of neuronal injury | able to enter the cerebrospinal fluid (CSF) |  |  |  |  |  |  |  |  |  |  |  | 
2 | O=S(=O)([O-])[O-].[Mg+2] [magnesium sulfate] |  |  |  | alter the amount of neuronal injury | able to enter the cerebrospinal fluid (CSF) |  |  |  |  |  |  |  |  |  |  |  | 
3 | tissue plasminogen activator [IPA] |  |  |  |  |  | 1.086 | 8.868 | 1.29 and 0.87 and 0.81 and 1.39 and 1.07 | 9.58 and 7.26 and 7.85 and 8.95 and 10.7 | 1.1 | 8.9 | 1.178 | 4.208 | 1.07 and 1.28 and 1.66 and 0.52 and 1.36 | 3.75 and 4.35 and 3.64 and 4.1 and 5.2 | 1.2 | 4.2
